Data published in ChEMBL document CHEMBL1275484, “Rifampin and rifaximin resistance in clinical isolates of Clostridium difficile” (Antimicrob Agents Chemother, 2008).

Legend:
[1] = test system: Clostridioides difficile; test: Antimicrobial activity against Clostridium difficile clinical isolate obtained from patient after completion of two courses of drug treatment; assay type: functional
[2] = Drug level in diarrhea patient feces at 400 mg, po every 12 hrs for 3 days; assay type: ADME, organism-based; conditions: human, read-out: Drug uptake

CO[C@H]1/C=C/O[C@@]2(C)Oc3c(C)c(O)c4c(O)c(c5c(nc6cc(C)ccn65)c4c3C2=O)NC(=O)/C(C)=C\C=C\[C@H](C)[C@H](O)[C@@H](C)[C@@H](O)[C@@H](C)[C@H](OC(C)=O)[C@@H]1C [RIFAXIMIN]
MIC [1]: > 256 µg/mL
concentration at 3 days [2]: 8e+06 ng/g
